Tests used:
[1] = test system: T332S/V362I/Pr R41G virus; assay: microbe, parasite or virus in culture; format: cell-based, HIV-1; settings: genotype T332S/V362I/Pr41G, sensitivity relative to wt virus
Method in brief: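 Renilla luciferase NL4-3 reporter virus (Gag P373S background) carrying Gag T332S/V362I plus protease R41G, inoculum normalized by luciferase signal, infected MT-2 cells (10,000/well). Compounds 3-fold diluted, 1% DMSO final. After 4–5 days at 37 °C, virus yield measured as Renilla luciferase activity in a multiple-cycle assay.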

[2] = test system: V362I site directed mutant virus; assay: Anti-viral sensitivity of site directed mutants, V362I; format: cell-based, HIV-1; settings: genotype V362I, sensitivity relative to wt virus
Source text: (§1) Viruses. NLRepRluc virus contains the Renilla luciferase marker in place of the viral nef gene. The proviral plasmid pNLRepRluc was constructed at Bristol-Myers Squibb, starting from a proviral NL4-3 clone (B subtype) that was obtained from the NIH AIDS Research and Reference Reagent Program. The parental recombinant wild type (WT) virus (NLRepRlucP373S) was derived from NLRepRluc and contains the additional substitution of P373 for serine in Gag (within the SP1 spacer), the most common 373 variation in subtype B. Other recombinant viruses (A364V, V370A/ΔT371 and the “T3325 triple” (T332S/V362I+HIV-1 protease R41G)) were generated by site-directed mutagenesis of plasmid pNLRepRlucP373S to introduce those amino acid substitutions in Gag and protease. […] Titers of virus stocks were determined using a luciferase assay (Dual-Luciferase® Reporter Assay System, Promega, Milwaukee, Wis., USA) endpoint.
(§2) Multiple cycle drug susceptibility assay. […] After 4-5 day incubation at 37° C./CO2, virus yields were determined by Renilla luciferase activity (Dual-Luciferase® Reporter Assay System, Promega). The endpoint luminescence was detected on a Wallac Trilux (PerkinElmer).
(§3) Starting from wt virus, the HIV protease R41G substitution was detected in one of three in vitro selections for resistance to the MI compound above along with Gag V362I and Gag T332S. […]

[3] = test system: T332S site directed mutant virus; assay: Anti-viral sensitivity of site directed mutants, T332S; format: cell-based, HIV-1; settings: genotype T332S, sensitivity relative to wt virus
Source text: as §1, §2, §3

[4] = test system: HIV protease R41G site directed mutant virus; assay: Anti-viral sensitivity of site directed mutants, HIV protease R41G; format: cell-based, HIV-1; settings: genotype HIV protease R41G, sensitivity relative to wt virus
Source text: as §1, §2, §3

[5] = test system: T332S/V362I site directed mutant virus; assay: Anti-viral sensitivity of site directed mutants, T332S/V362I; format: cell-based, HIV-1; settings: genotype T332S/V362I, sensitivity relative to wt virus
Source text: as §1, §2, §3

[6] = test system: T332S/prR41G site directed mutant virus; assay: Anti-viral sensitivity of site directed mutants, T332S/prR41G; format: cell-based, HIV-1; settings: genotype T332S/prR41G, sensitivity relative to wt virus
Source text: as §1, §2, §3

[7] = test system: V362I/prR41G site directed mutant virus; assay: Anti-viral sensitivity of site directed mutants, V362I/prR41G; format: cell-based, HIV-1; settings: genotype V362I/prR41G, sensitivity relative to wt virus
Source text: as §1, §2, §3

[8] = test system: HIV-1 strain NL4-4 virus; assay: Selection for resistance to the MI compound, EC50 for the starting virus; format: cell-based; settings: Human immunodeficiency virus 1, read-out: EC50 for this virus
Source text: T332sN362I/Pr R41G (N14.3, B Clade) virus′ was obtained as follows: Selection for resistance of HIV-1 strain […] virus with the HIV maturation inhibitor (MI) compound
At passage 8 virus was harvested and sequenced.

[9] = test system: viruses that contain T332S and HIV protease R41G combinations, with and without V362I; assay: Anti-viral sensitivity of site directed mutants, single and double combinations summarised in text; format: cell-based, HIV-1; settings: viruses with only a single change
Source text: Starting from wt virus, the HIV protease R41G substitution was detected in one of three in vitro selections for resistance to the MI compound above along with Gag V362I and Gag T332S. R41G is not a primary PI resistance substitution^i and is not present in the LANL database (2010). There is a single report of R41G associated with in vitro selection for resistance to an investigational PI^ii. […] A related change, R41K, is a common subtype B polymorph (27% of LANL database), and R41K may be involved in the emergence of protease resistance to an investigational protease inhibitor.^iii R41 is located in a loop proximal to the HIV-1 protease substrate binding site, and this change might act allosterically to facilitate closing the protease active site pocket over the substrate, thereby allowing catalysis. It might be that R41G alters the dynamics of the loop motion and the final positioning of the loop, which could cause the active site to better recognize the primary MI compound (above)-selected changes (V362I/T332S). An analysis of the V362I/T332S/Pr R41G substitutions, and their effects on MI compound susceptibility and viral growth, are described in the Table 1 below:
Viruses were constructed that contain T332S and HIV protease R41G combinations, with and without V362I.). […]

Row | SMILES | Fold wt [1] | Fold wt [2] | Fold wt [3] | Fold wt [4] | Fold wt [5] | Fold wt [6] | Fold wt [7] | EC50 [8] [nM] | fold less sensitive [9] [fold]
1 | C=C(C)[C@@H]1CC[C@]2(C(=O)O)CC[C@]3(C)[C@H](CC[C@@H]4[C@@]5(C)CC[C@H](OC(=O)CC(C)(C)C(=O)O)C(C)(C)[C@@H]5CC[C@]43C)[C@@H]12 [BVM, 3β-(3-carboxy-3-methyl-butanoyloxy) lup-20(29)-en-28-oic acid] | 10 | 0.6 | 23 | 1.9 | 3.1 | 4.2 | 3.9 |  | 
2 | C=C(C)[C@@H]1CC[C@]2(NCCN3CCS(=O)(=O)CC3)CC[C@]3(C)[C@H](CC[C@@H]4[C@@]5(C)CC=C(c6ccc(C(=O)O)cc6)C(C)(C)[C@@H]5CC[C@]43C)[C@@H]12 [MI compound] | 217 | 2.2 | 1.9 | 1.5 | 5.7 | 6.1 | 9.3 | 2 | 2
